{
  "source": "patent US20100226991A1",
  "about": "“SOLID INORGANIC/ORGANIC HYBRID WITH MODIFIED SURFACE” (CENTRE NATIONAL DE LA RECHERCHE SCIENTIFIQUE - CNRS-, priority 2007, published 2010)",
  "key": {"[1]": {"conditions": "20° C.; cited from earlier work"}, "[2]": {"assay": "Solubility of busulfan in various solvents", "type": "physicochemical", "source_text": "The solvents chosen for the impregnation are those in which busulfan has appreciable solubility (acetone, acetonitrile, chloroform, dichloromethane, dimethyl carbonate) (Table 18)."}, "Female Wistar rats": {"system": "Female Wistar rats", "conditions": "rat, in vivo", "procedure": "The animals used for the experiment are […] female Wistar rats weighing 161.36±16.1 g.\nAll the tests were performed in the animal house of the University Pharmacy school under temperature and humidity conditions, and after 3 days of adapting the animals to the animal house (3 days).\nFor the acute toxicity tests, a single intrajugular injection of the materials MIL-88A (150 and 500 nm), MIL-88Bt (50 and 140 nm) or 5% glucose (control group) is performed on 4 groups (at 1 day, 1 week, 1 month and 3 months, respectively) of 8 rats chosen at random and anesthetized with isoflurane.\nThe change in weight and the behavior of the animals were monitored. […]\nMoreover, each group of animals was sacrificed after 1 day, 1 week, 1 and 3 months, respectively. The animals were anesthetized with isoflurane and the spleen, kidneys, liver and heart were then removed and stored for histological studies. Four livers were also used to perform a microsomal extraction in order to measure the activation of cytochrome P450. […]"}, "Cytochrome P450": {"system": "Cytochrome P450", "design": "species or system Wistar rats", "conditions": "rat, in vivo", "source_text": "Moreover, each group of animals was sacrificed after 1 day, 1 week, 1 and 3 months, respectively. The animals were anesthetized with isoflurane and the spleen, kidneys, liver and heart were then removed and stored for histological studies. Four livers were also used to perform a microsomal extraction in order to measure the activation of cytochrome P450.\nCytochrome P450 is an enzyme associated with the […] of the smooth endoplasmic reticulum, which is highly involved in the degradation of exogenous molecules. This enzyme has very low substrate specificity and is capable of catalyzing the transformation of newly synthesized compounds such as medicaments. The majority of the P450 cytochromes can be induced or repressed, at the transcriptional level, by various xenobiotics; this is often the cause of side effects of medicaments. Assaying this enzyme makes it possible to determine whether the MOF material used is metabolized by cytochrome P450, in which case it will activate or inhibit its activity.\nThe amount of cytochrome can be interpreted only on condition that it has been related to the total amount of protein contained in each sample. Assay of the protein contained in the sample was performed by means of a BCA kit supplied by Pierce (batch #HI106096). […]"}, "rats": {"system": "rats", "conditions": "cited from earlier work"}},
  "data": [
    {"compound": "COc1cc(O)c(C(=O)c2ccccc2)cc1S(=O)(=O)O", "note": "[Benzophenone-4, 2-hydroxy-4-methoxybenzophenone-5-sulfonic acid]", "values": [
      {"measurement": "solubility in water", "setting": "[1]", "value": 100, "unit": "mg/mL"}
    ]},
    {"compound": "COc1ccc(C(=O)c2ccccc2)c(O)c1", "note": "[Benzophenone-3, 2-hydroxy-4-methoxybenzophenone]", "values": [
      {"measurement": "solubility in water", "setting": "[1]", "value": 0.0037, "unit": "mg/mL"}
    ]},
    {"compound": "CS(=O)(=O)OCCCCOS(C)(=O)=O", "note": "[busulfan, 1,4-butanediol dimethylsulfonate]", "values": [
      {"measurement": "solubility", "setting": "[2]; acetone, organic solvent or mixture", "value": 20000, "unit": "µg/mL"},
      {"measurement": "solubility", "setting": "[2]; acetonitrile, organic solvent or mixture", "value": 30000, "unit": "µg/mL"},
      {"measurement": "solubility", "setting": "[2]; chloroform, organic solvent or mixture", "value": 8000, "unit": "µg/mL"},
      {"measurement": "solubility", "setting": "[2]; dichloromethane, organic solvent or mixture", "value": 10000, "unit": "µg/mL"},
      {"measurement": "solubility", "setting": "[2]; dimethyl carbonate, organic solvent or mixture", "value": 13000, "unit": "µg/mL"},
      {"measurement": "solubility", "setting": "[2]; ethanol, organic solvent or mixture", "value": "< 4000", "unit": "µg/mL"},
      {"measurement": "solubility", "setting": "[2]; ether, organic solvent or mixture", "value": "< 4000", "unit": "µg/mL"},
      {"measurement": "solubility", "setting": "[2]; ethyl acetate, organic solvent or mixture", "value": 6600, "unit": "µg/mL"},
      {"measurement": "solubility", "setting": "[2]; hexane, organic solvent or mixture", "value": "< 4000", "unit": "µg/mL"},
      {"measurement": "solubility", "setting": "[2]; methanol, organic solvent or mixture", "value": "< 4000", "unit": "µg/mL"},
      {"measurement": "solubility", "setting": "[2]; tetrahydrofuran, organic solvent or mixture", "value": "~5000", "unit": "µg/mL"},
      {"measurement": "solubility", "setting": "[2]; toluene, organic solvent or mixture", "value": "~4000", "unit": "µg/mL"},
      {"measurement": "solubility", "setting": "[2]; water", "value": 100, "unit": "µg/mL"}
    ]},
    {"compound": "Fe3O[O2C—C6(CH3)4—CO2]3.OH.nH2O [MIL-88Bt]", "values": [
      {"measurement": "liver weight", "setting": "Female Wistar rats", "value": "the weight remains high"},
      {"measurement": "seric iron", "setting": "Female Wistar rats", "value": "recovered a seric iron concentration comparable to that of the control group"},
      {"measurement": "signs of severe toxicity", "setting": "Female Wistar rats", "value": "do not induce any sign of severe toxicity"},
      {"measurement": "weight change of the animals", "setting": "Female Wistar rats", "value": "does not produce a significant variation in weight over time"},
      {"measurement": "metabolism by cytochrome P450 (cytochrome activity vs glucose control)", "setting": "Cytochrome P450", "value": "does not appear to be metabolized by Cyp450"}
    ]},
    {"compound": "[Cl][Zr]([Cl])([Cl])[Cl]", "note": "[ZrCl4]", "values": [
      {"measurement": "oral lethal dose 50 (LD50)", "setting": "rats", "value": 1.7, "unit": "g/kg"}
    ]},
    {"compound": "Fe3O[O2C—C2H2—CO2]3.X.nH2O [MIL-88A]", "values": [
      {"measurement": "liver weight", "setting": "Female Wistar rats", "value": "returns to normal for MIL-88A after 3 months"},
      {"measurement": "seric iron", "setting": "Female Wistar rats", "value": "recovered a seric iron concentration comparable to that of the control group"},
      {"measurement": "signs of severe toxicity", "setting": "Female Wistar rats", "value": "do not induce any sign of severe toxicity"},
      {"measurement": "weight change of the animals", "setting": "Female Wistar rats", "value": "does not produce a significant variation in weight over time"},
      {"measurement": "metabolism by cytochrome P450 (cytochrome activity vs glucose control)", "setting": "Cytochrome P450", "value": "not metabolized by Cyp450"}
    ]}
  ]
}
